According to patent publication US20160213742A1, “COMPOSITIONS AND METHODS FOR THE TREATMENT OF FUNGAL INFECTIONS” (priority 2013, published 2016):

Assays:
Test in all cases: MEC assay (Example 31)
Assay type in all cases: cell-based
Conditions in all cases: RPMI pH 7.0, 35° C., 24-48 hr
A. fumigatus ATCC 13073 = test system: A. fumigatus ATCC 13073
Summary of the method: (§1)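 RPMI pH 7.0 (CLSI), 2-fold serial dilutions, 1.25% DMSO final (investigational). Inoc: Candida 0.5 McF 1:100; Aspergillus ~0.2-2.5×10^4 CFU/mL. 35° C., ~24-48 hr. MIC = no visible growth; MEC = small compact hyphae vs growth control.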

A. fumigatus MYA-4609 = test system: A. fumigatus MYA-4609
Summary of the method: as §1

A. fumigatus MX 5944 = test system: A. fumigatus MX 5944
Summary of the method: as §1

A. flavus MX 5948 = test system: A. flavus MX 5948
Summary of the method: as §1

A. fumigatus MYA-3626 = test system: A. fumigatus MYA-3626
Summary of the method: as §1

Molecule: CC[C@H](C)C[C@H](C)CCCCCCCCC(=O)N[C@H]1C[C@@H](O)[C@@H](NCCN)NC(=O)[C@@H]2[C@@H](O)CCN2C(=O)[C@H]([C@H](O)CCNC(=O)[C@H](Cc2ccccc2)NC(=O)[C@H](CC(C)C)NC(=O)[C@H](CCSC)NC=O)NC(=O)[C@H]([C@H](O)[C@@H](O)c2ccc(O)cc2)NC(=O)[C@@H]2C[C@@H](O)CN2C(=O)[C@H]([C@@H](C)O)NC1=O [Compound 1]
- MEC (A. fumigatus ATCC 13073): 0.12 to 2 µg/mL
- MEC (A. fumigatus MYA-4609): 0.12 to 1 µg/mL
- MEC (A. fumigatus MX 5944): 0.12 to 0.5 µg/mL
- MEC (A. flavus MX 5948): 0.12 to 1 µg/mL
- MEC (A. fumigatus MYA-3626): 0.25 to 0.5 µg/mL

Molecule: CC[C@H](C)C[C@H](C)CCCCCCCCC(=O)N[C@H]1C[C@@H](O)[C@@H](OCCN)NC(=O)[C@@H]2[C@@H](O)CCN2C(=O)[C@H]([C@H](O)CCNC(=O)[C@H](Cc2ccccc2)NC(=O)[C@H](CC(C)C)NC(=O)[C@H](CCSC)NC=O)NC(=O)[C@H]([C@H](O)[C@@H](O)c2ccc(O)cc2)NC(=O)[C@@H]2C[C@@H](O)CN2C(=O)[C@H]([C@@H](C)O)NC1=O [Compound 11]
- MEC (A. fumigatus ATCC 13073): ≦0.06-0.06 μg/mL
- MEC (A. fumigatus MYA-4609): 0.06 µg/mL
- MEC (A. fumigatus MX 5944): 0.12 µg/mL
- MEC (A. flavus MX 5948): 0.06 µg/mL
- MEC (A. fumigatus MYA-3626): 0.06 to 0.12 µg/mL

Molecule: caspofungin acetate [reference compound]
- MEC (A. fumigatus ATCC 13073): ≦0.03-0.06 μg/mL
- MEC (A. fumigatus MYA-4609): ≦0.03-1^ μg/mL
- MEC (A. fumigatus MX 5944): 0.03 to 0.12 µg/mL
- MEC (A. flavus MX 5948): ≦0.015-0.06 μg/mL
- MEC (A. fumigatus MYA-3626): ≦0.03-0.12 μg/mL
